Results published in EP4714952A1, “COMPOUND AND USE THEREOF” (Autobio Group Co., Ltd., priority 2023, dated 2025).
Counter-ions that a name gives are not always drawn. Like-named read-outs stand apart in the source and are kept apart here.

Legend:
PDE3A = biological target: T1, PDE3A (Homo sapiens, UniProt Q14432); assay: In vitro inhibitory effect on PDE3A enzyme (AMP-Glo assay); assay type: biochemical
T1 construct: purchased BPS
Experimental: (§1) 1. Table 1 Main reagents and consumables for in vitro detection of inhibitory effect
(§2) 2. Preparation of experimental buffers Reaction buffer (5×): 50 mM Tris-HCl (buffer), 50 mM MgCl2, 0.5% BSA, 0.25% Tween-20, pH 7.4, stored at -20°C. 3. […] The starting concentration of the reference substance serial dilution was the Low control, and 1% DMSO-reaction buffer served as the High control. • 3) The enzyme was diluted to the desired concentration with 1× reaction buffer, and 4 µL of the diluted solution was transferred to the assay plate. After centrifugation, the 384-well low dead-volume microplate was sealed with sealing film and incubated in the incubator at 23°C for 15 minutes. • 4) The substrate cAMP was diluted to the desired concentration using 1× reaction buffer, and 5 µL of the diluted solution was transferred to the assay plate. After centrifugation, the plate was sealed again and incubated in the incubator at 23°C for 60 minutes (PDE3A) or 10 minutes (PDE4B1). • 5) Then, 5 µL of Reagent I from the AMP-Glo™ Assay Kit was added to the assay plate. After centrifugation and sealing, the plate was incubated in the incubator at 23°C for 60 minutes. • 6) The detection solution was prepared according to the AMP-Glo™ Assay Kit instructions, and 10 µL of the detection solution was added to the assay plate. After centrifugation and sealing, the plate was incubated in the incubator at 23°C for 60 minutes. • 7) The readout was recorded using a multimode microplate reader. 4. […] 5.

PDE4B1 = biological target: T2, PDE4B1 (Homo sapiens, UniProt Q07343); assay: In vitro inhibitory effect on PDE4B1 enzyme (AMP-Glo assay); assay type: biochemical
T2 construct: purchased Sigma
Experimental: as §1, §2

[1] = AMP-Glo Assay Kit, substrate cAMP, 23°C, 60 minutes, read-out: PDE3A (IC50)
[2] = AMP-Glo Assay Kit, substrate cAMP, 23°C, 10 minutes, read-out: PDE4B1 (IC50)

T1 sequence (Q14432 whole entry): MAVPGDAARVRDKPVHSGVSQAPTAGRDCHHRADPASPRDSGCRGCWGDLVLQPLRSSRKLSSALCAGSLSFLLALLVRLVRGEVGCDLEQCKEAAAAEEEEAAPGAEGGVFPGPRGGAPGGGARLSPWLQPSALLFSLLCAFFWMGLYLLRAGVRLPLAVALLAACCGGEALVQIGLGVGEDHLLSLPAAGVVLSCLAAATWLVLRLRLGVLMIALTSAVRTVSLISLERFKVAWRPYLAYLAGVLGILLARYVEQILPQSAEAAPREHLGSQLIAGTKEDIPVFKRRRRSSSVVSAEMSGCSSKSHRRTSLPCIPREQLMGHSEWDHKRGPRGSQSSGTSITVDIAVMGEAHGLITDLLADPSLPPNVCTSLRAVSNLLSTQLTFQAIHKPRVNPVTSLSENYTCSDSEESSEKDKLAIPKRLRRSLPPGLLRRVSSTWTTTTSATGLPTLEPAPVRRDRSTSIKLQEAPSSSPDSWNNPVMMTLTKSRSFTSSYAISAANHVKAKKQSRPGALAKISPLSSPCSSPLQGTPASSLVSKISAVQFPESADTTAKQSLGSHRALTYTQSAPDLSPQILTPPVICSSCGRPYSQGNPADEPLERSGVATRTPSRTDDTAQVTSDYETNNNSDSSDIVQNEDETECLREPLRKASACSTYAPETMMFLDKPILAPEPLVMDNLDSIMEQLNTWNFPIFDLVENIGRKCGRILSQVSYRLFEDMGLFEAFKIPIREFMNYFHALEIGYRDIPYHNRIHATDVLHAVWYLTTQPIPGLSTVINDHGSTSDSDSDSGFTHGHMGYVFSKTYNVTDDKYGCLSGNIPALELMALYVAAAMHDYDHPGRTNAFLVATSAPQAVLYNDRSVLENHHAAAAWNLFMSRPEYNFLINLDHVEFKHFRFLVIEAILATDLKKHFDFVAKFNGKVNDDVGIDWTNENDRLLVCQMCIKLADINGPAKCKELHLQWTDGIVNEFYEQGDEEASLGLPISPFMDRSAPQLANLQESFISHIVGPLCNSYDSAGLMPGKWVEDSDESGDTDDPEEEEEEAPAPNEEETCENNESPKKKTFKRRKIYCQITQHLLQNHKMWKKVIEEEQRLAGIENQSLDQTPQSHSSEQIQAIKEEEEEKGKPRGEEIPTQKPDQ
T2 sequence (Q07343 whole entry): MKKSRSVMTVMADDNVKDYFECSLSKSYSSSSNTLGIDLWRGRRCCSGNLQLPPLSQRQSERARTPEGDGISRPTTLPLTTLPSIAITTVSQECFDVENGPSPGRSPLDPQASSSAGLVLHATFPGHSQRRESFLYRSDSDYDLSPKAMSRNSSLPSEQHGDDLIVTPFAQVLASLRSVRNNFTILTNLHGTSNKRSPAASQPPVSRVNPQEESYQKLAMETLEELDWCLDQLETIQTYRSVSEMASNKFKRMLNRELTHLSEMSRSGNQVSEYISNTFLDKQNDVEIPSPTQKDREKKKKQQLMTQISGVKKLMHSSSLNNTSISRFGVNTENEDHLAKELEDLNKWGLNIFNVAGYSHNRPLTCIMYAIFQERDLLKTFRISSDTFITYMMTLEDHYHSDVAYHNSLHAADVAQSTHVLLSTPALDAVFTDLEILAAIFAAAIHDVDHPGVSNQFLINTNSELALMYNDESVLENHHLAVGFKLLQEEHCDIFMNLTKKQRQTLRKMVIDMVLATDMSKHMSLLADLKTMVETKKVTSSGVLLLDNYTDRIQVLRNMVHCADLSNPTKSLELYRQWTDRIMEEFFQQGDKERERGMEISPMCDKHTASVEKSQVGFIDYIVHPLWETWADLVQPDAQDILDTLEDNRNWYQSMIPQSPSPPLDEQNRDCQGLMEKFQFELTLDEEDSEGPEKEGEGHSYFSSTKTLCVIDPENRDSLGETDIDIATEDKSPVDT

Structure (SMILES) | IC50 (PDE3A) [nM] | IC50 (PDE4B1) [nM] | IC50 (PDE3A; [1]) [nM] | IC50 (PDE4B1; [2]) [nM]
COc1cc2c(cc1OC)-c1cc(=Nc3c(C)cc(C)cc3C)n(CCNC(N)=O)c(=O)n1CCS2 [Compound 20] | 24.9 | 251 |  | 
CCOc1cc2c(cc1OC)-c1cc(N(CCNC(=O)c3ccccn3)c3c(C)cc(C)cc3C)nc(=O)n1CC2 [Compound 63] |  |  | 0.042 | 1.2
CCOc1cc2c(cc1OC)-c1cc(N(c3c(C)cc(C)cc3C)C3CN(C(=O)c4[nH]nnc4C)C3)nc(=O)n1CC2 [Compound 77] |  |  | 24.7 | 6730
COc1cc2c(cc1OCc1ccccc1)CCn1c-2cc(=Nc2c(C)cc(C)cc2C)n(CCNC(N)=O)c1=O [Compound 24] |  |  | 1010 | 
CCOc1cc2c(cc1OC)-c1cc(=Nc3c(C)cc(C)cc3C)n(CCNC(=O)NOC)c(=O)n1CC2 [Compound 85] | 0.31 | 40.5 |  | 
CCOc1cc2c(cc1OC)CCn1c-2cc(=Nc2c(C)cc(C)cc2C)n(CCNC(N)=O)c1=O [Compound 12] | 7.45 | 337 |  | 
COc1cc2c(cc1OC)-c1cc(N(CCNC(N)=O)c3c(C)cc(C)cc3C)nc(=O)n1CC2 [Compound 45] | 0.032 | 100 |  | 
CCOc1cc2c(cc1OC)-c1cc(N(CCNC(=O)N3CCOCC3CO)c3c(C)cc(C)cc3C)nc(=O)n1CC2 (stereo not shown) [Compound 83] |  |  | 0.043 | 37.3
COc1cc2c(cc1OC)-c1cc(N(c3c(C)cc(C)cc3C)C3CN(C(N)=O)C3)nc(=O)n1CC2 [Compound 32] | 0.21 | 238 |  | 
COc1cc2c(cc1OC)-c1cc(N(CCNC(=O)N3CCOCC3CO)c3c(C)cc(C)cc3C)nc(=O)n1CC2 (stereo not shown) [Compound 48] | 0.16 | 579 |  | 
CCOc1cc2c(cc1OC)-c1cc(N(CCNC(=O)c3ccno3)c3c(C)cc(C)cc3C)nc(=O)n1CC2 [Compound 62] |  |  | 0.055 | 2.6
CCn1cccc(C(=O)NCCn2c(=Nc3c(C)cc(C)cc3C)cc3n(c2=O)CCc2cc(OC)c(OC)cc2-3)c1=O [Compound 40] | 1.29 | 82.1 |  | 
COc1cc2c(cc1OC)-c1cc(N(c3c(C)cc(C)cc3C)C3CN(C(=O)c4[nH]nnc4C)C3)nc(=O)n1CC2 [Compound 50] | 0.005 | 67.4 |  | 
CCOc1cc2c(cc1OC)-c1cc(N(CCNC(=O)c3nnc(C)o3)c3c(C)cc(C)cc3C)nc(=O)n1CC2 [Compound 65] |  |  | 0.036 | 10.8
COc1cc2c(cc1OC)-c1cc(=Nc3c(C)cc(C)cc3C)n(CCNC(=O)c3cccn(C4CC4)c3=O)c(=O)n1CC2 [Compound 41] | 1.14 | 250 |  | 
COc1cc2c(cc1OC)C(C)Cn1c-2cc(=Nc2c(C)cc(C)cc2C)n(CCNC(N)=O)c1=O (stereo not shown) [Compound 9] | 5.66 | 114 |  | 
COc1cc2c(cc1OC)-c1cc(N(CCNC(=O)c3c(O)nnn3C)c3c(C)cc(C)cc3C)nc(=O)n1CC2 [Compound 44] | 0.081 | 223 |  | 
CCOc1cc2c(cc1OC)-c1cc(=Nc3c(C)cc(C)cc3C)n(CCNC(=O)c3cc[nH]c(=O)c3)c(=O)n1CC2 [Compound 30] | 3.23 | 26.3 |  | 
CONC(=O)NCCn1c(=Nc2c(C)cc(C)cc2C)cc2n(c1=O)CCc1cc(OC)c(OC)cc1-2 [Compound 8] | 0.86 | 377 |  | 
COc1cc2c(cc1OC)-c1cc(N(CCC(C)(C)O)c3c(C)cc(C)cc3C)nc(=O)n1CC2 [Compound 18] |  |  | 0.088 | 213
COc1cc2c(cc1OC)-c1cc(N(c3c(C)cc(C)cc3C)C3CN(C(=O)c4ncon4)C3)nc(=O)n1CC2 [Compound 51] |  |  | 89.5 | 1450
COc1cc2c(cc1OC)-c1cc(N(CCC(O)CO)c3c(C)cc(C)cc3C)nc(=O)n1CC2 (stereo not shown) [Compound 6] |  |  | 0.026 | 121
CCOc1cc2c(cc1OC)-c1cc(=Nc3c(C)cc(C)cc3C)n(CCN3CCS(=O)(=O)CC3)c(=O)n1CC2 [Compound 73] |  |  | 0.53 | 414
CCOc1cc2c(cc1OC)-c1cc(N(CCC(N)C(F)(F)F)c3c(C)cc(C)cc3C)nc(=O)n1CC2 (stereo not shown) [Compound 78] |  |  | 0.027 | 8.9
COc1cc2c(cc1OC)-c1cc(=Nc3c(C)cc(C)cc3C)n(CCNC(=O)N3CCn4c(nnc4C(F)(F)F)C3)c(=O)n1CC2 [Compound 33] | 4.78 | 3760 |  | 
CCOc1cc2c(cc1OC)-c1cc(N(CCCN)c3c(C)cc(C)cc3C)nc(=O)n1CC2 [Compound 81] |  |  | 0.33 | 64.4
COc1cc2c(cc1OC)-c1cc(N(c3c(C)cc(C)cc3C)C3CN(C(=O)c4cnc[nH]4)C3)nc(=O)n1CC2 [Compound 49] |  |  | 325 | 

Structure (SMILES) | IC50 (PDE3A) [nM] | IC50 (PDE4B1) [nM] | IC50 (PDE3A; [1]) [nM] | IC50 (PDE4B1; [2]) [nM]
COc1cc2c(cc1OC)S(=O)(=O)CCn1c-2cc(=Nc2c(C)cc(C)cc2C)n(CCNC(N)=O)c1=O [Compound 21] | 1000 | 6910 |  | 
CCOc1cc2c(cc1OC)-c1cc(N(CC(=O)O)c3c(C)cc(C)cc3C)nc(=O)n1CC2 [Compound 76] | 0.1 | 172 |  | 
COc1cc2c(cc1OC)-c1cc(=Nc3c(C)cc(C)cc3C)n(CCNC(=O)NC3CCNCC3)c(=O)n1CC2 [Compound 67] | 5.49 | 3800 |  | 
COc1cc2c(cc1OC)-c1cc(=Nc3c(C)cc(C)cc3C)n(CCNC(=O)c3cnc4n3CCC4)c(=O)n1CC2 [Compound 36] | 0.9 | 530 |  | 
COc1cc2c(cc1OC)-c1cc(N(c3c(C)cc(C)cc3C)C3CCN(C(=O)c4c(O)nnn4C)C3)nc(=O)n1CC2 (stereo not shown) [Compound 35] | 0.56 | 1280 |  | 
COc1cc2c(cc1OC)-c1cc(=Nc3c(C)cc(C)cc3C)n(CCNC(=O)N3Cc4cn(C5CC5)nc4C3)c(=O)n1CC2 [Compound 68] | 1.82 | 334 |  | 
Cc1cc(C)c(N=c2cc3n(c(=O)n2CCNC(N)=O)CCc2cc4c(cc2-3)OCCO4)c(C)c1 [Compound 13] | 44.6 |  |  | 
CCOc1cc2c(cc1OC)-c1cc(N(CCN)c3c(C)cc(C)cc3C)nc(=O)n1CC2 [Compound 42] | 0.62 | 75.3 |  | 
CCOc1cc2c(cc1OC)-c1cc(N(c3c(C)cc(C)cc3C)C3CC(NC(=O)c4c(O)nnn4C)C3)nc(=O)n1CC2 (stereo not shown) [Compound 31] | 0.57 | 193 |  | 
COc1cc2c(cc1OC)-c1cc(=Nc3c(C)cc(C)cc3C)n(CCNC(=O)OCC(O)CCO)c(=O)n1CC2 (stereo not shown) [Compound 69] | 1.91 | 6750 |  | 
COc1cc2c(cc1OCC1CC1)CCn1c-2cc(=Nc2c(C)cc(C)cc2C)n(CCNC(=O)c2c(O)nnn2C)c1=O [Compound 27] |  |  | 2.16 | 918
COc1cc2c(cc1OC)-c1cc(=Nc3c(C)cc(C)cc3C)n(CCNC(=O)c3cccn(CC(F)(F)F)c3=O)c(=O)n1CC2 [Compound 55] | 0.49 | 262 |  | 
CCOc1cc2c(cc1OC)-c1cc(=Nc3c(C)cc(C)cc3C)n(CCNC(=O)c3cccn(C)c3=O)c(=O)n1CC2 [Compound 52] | 0.37 | 0.89 |  | 
COc1cc2c(cc1OCC(F)(F)F)CCn1c-2cc(=Nc2c(C)cc(C)cc2C)n(CCNC(=O)c2c(O)nnn2C)c1=O [Compound 26] |  |  | 0.34 | 419
CCOc1cc2c(cc1OC)-c1cc(=Nc3c(C)cc(C)cc3C)n(CCCN)c(=O)n1CC2 [Compound 87] | 3.02 | 359 |  | 
COc1cc2c(cc1OC)-c1cc(=Nc3c(C)cc(C)cc3C)n(CCC(O)CO)c(=O)n1CC2 (stereo not shown) [Compound 5] |  |  | 0.1 | 974
COc1cc2c(cc1OC)-c1cc(N(CCC#N)c3c(C)cc(C)cc3C)nc(=O)n1CC2 [Compound 1] | 0.11 | 298 |  | 
COCCOc1cc2c(cc1OC)-c1cc(=Nc3c(C)cc(C)cc3C)n(CCNC(=O)c3c(O)nnn3C)c(=O)n1CC2 [Compound 28] | 0.46 | 478 |  | 
CCOc1cc2c(cc1OC)-c1cc(N(CCN3CCS(=O)(=O)CC3)c3c(C)cc(C)cc3C)nc(=O)n1CC2 [Compound 72] |  |  | 0.074 | 5
COc1cc2c(cc1OC)-c1cc(=Nc3c(C)cc(C)cc3C)n(CCNC(=O)NCCN3CCOCC3)c(=O)n1CC2 [Compound 38] | 1.61 | 1890 |  | 
COc1cc2c(cc1OC)-c1c/c(=N\c3c(C)cc(C)cc3C)n(C)c(=O)n1CC2 [Trequinsin Hydrochlorid, Trequinsin hydrochloride, reference compound] |  |  | 0.227 | 
CNCCn1c(=Nc2c(C)cc(C)cc2C)cc2n(c1=O)CCc1cc(OC)c(OC)cc1-2 [Compound 16] |  |  | 6.63 | 
Cc1cc(C)c(N=c2cc3n(c(=O)n2CCNC(N)=O)CCc2cc4c(cc2-3)OCO4)c(C)c1 [Compound 11] | 117 |  |  | 
COc1cc2c(cc1OC)-c1cc(N(c3c(C)cc(C)cc3C)C3CN(C(=O)c4c(O)nnn4C)C3)nc(=O)n1CC2 [Compound 47] |  |  | 72.3 | 
COc1cc2c(cc1OC1CCN(C)C1)CCn1c-2cc(=Nc2c(C)cc(C)cc2C)n(CCNC(N)=O)c1=O (stereo not shown) [Compound 37] | 60.1 |  |  | 
COc1cc2c(cc1OC)-c1cc(=Nc3c(C)cc(C)cc3C)n(CCN3CCn4c(nnc4C(F)(F)F)C3)c(=O)n1CC2 [Compound 34] | 6.4 |  |  | 
